In patent publication US6741954B2, “Selection method for odorants” (Symrise GmbH & Co. KG, priority 2000, dated 2004):
Like-named read-outs stand apart in the source and are kept apart here.

Experiments:
Assay type in all cases: physicochemical
[1] = Headspace above the wet washed hair: relative partition parameter headspace/shampoo (SPME-GC)
Description: (§1) The procedure is analogous in all examples.
The example reflects the scent impression, which is perceived from freshly washed hair. The shampoo is prepared as is generally customary. The mixture of 39 odorants is incorporated into the above-mentioned shampoo (1st) in an amount of 1%. A hair tress (2.5 g) is washed in 100 ml of a 20% shampoo solution in water by immersing 5-10 times and stirring, and then rinsed in 100 ml of clear water by immersing it three times. The hair tress is carefully patted with thin cellulose. The moist hair tress is transferred to a 100 ml Erlenmeyer flask sealed with a septum and left to stand for 3 h. The headspace above the washed and rinsed hair tress is extracted over 15 min using solid phase microextraction (SPME). The SPME needle is desorbed in a GC injector, and a gas chromatogram is recorded. […] The analytical results are then used mathematically as described above.

[2] = Headspace above the shampoo: relative partition parameter (SPME-GC); settings: log of amount in headspace relative to amount in shampoo; 1% odorant mixture, SPME 15 min
Description: as §1
The example reflects the scent impression, which is perceived from a freshly opened bottle of shampoo. The mixture of 39 odorants is incorporated into the above-mentioned shampoo (1) in an amount of 1%. 20 g of the shampoo are transferred to a 100 ml Erlenmeyer flask sealed with a septum. The headspace above the shampoo is extracted using a SPME over 15 min. […] The analytical results are then used mathematically as described above.

[3] = Headspace above the soap bar: relative partition parameter (SPME-GC)
Description: as §1
The example reflects the scent impression, which is perceived from a fresh bar of soap. […] 20 g of the grated soap are transferred to a 100 ml Erlenmeyer flask sealed with a septum. The headspace above the shampoo is extracted using a SPME over 15 min. […] The analytical results are then used mathematically as described above.

[4] = Headspace above the washing powder: relative partition parameter (SPME-GC)
Description: as §1
The example reflects the scent impression, which is perceived from a freshly opened pack of laundry detergent. The mixture of 39 odorants is incorporated in the above-mentioned washing powder in an amount of 0.5%. 20 g of the washing powder are transferred to a 100 ml Erlenmeyer flask sealed with a septum. The headspace above the shampoo is extracted using a SPME over 15 min. […] The analytical results are then used mathematically as described above.

[5] = Headspace above the candle wax: relative partition parameter (SPME-GC); settings: log of amount in headspace relative to amount in candle wax; 5% odorant mixture, grated nonburning candle, SPME 15 min
Description: as §1
The example reflects the scent impression, which is perceived from a nonburning candle. The mixture of 39 odorants is incorporated into a candle in an amount of 5%. 20 g of the grated candle are transferred to a 100 ml Erlenmeyer flask sealed with a septum. The headspace above the candle is extracted using a SPME over 15 min. […] The analytical results are then used mathematically as described above.

[6] = Headspace above the fresh gel room air freshener: relative partition parameter (SPME-GC); settings: log of amount in headspace relative to amount in gel; 5% odorant mixture, 10 liter vessel, 1 h, SPME 15 min
Description: as §1
The example reflects the scent impression, which is perceived above a fresh gel room air freshener. The mixture of 39 odorants is incorporated into an air freshener in an amount of 5%. 100 g of the air freshener are placed in its customary presentation form in a large sealed 10 liter vessel. The air freshener is left to stand for one hour. The headspace above the air freshener is extracted using a SPME over 15 min. […] The analytical results are then used mathematically as described above.

[7] = Headspace above the solution of WC scented block cleaner: relative partition parameter (SPME-GC); settings: log of amount in headspace above 1% solution in water relative to amount in WC block; 1% odorant mixture, SPME 15 min
Description: as §1
The example reflects the scent impression, which is perceived from a WC scented block cleaner. The mixture of 39 odorants is incorporated into the toilet block in an amount of 1%. A 1% solution of the toilet block in water is prepared. 20 ml of this solution are transferred to a 100 ml Erlenmeyer flask sealed with a septum. The headspace above the shampoo is extracted by means of a SPME over 15 min. […] The analytical results are then used mathematically as described above.

[8] = log of amount in headspace above wet washed hair relative to amount in shampoo, 1% odorant mixture, 3 h standing, SPME 15 min
[9] = log of amount in headspace relative to amount in soap, 1.2% odorant mixture, grated soap, SPME 15 min
[10] = log of amount in headspace relative to amount in washing powder, 0.5% odorant mixture, SPME 15 min

Row | Activity (logarithmic partition parameter above wet hair) [1, 8] | Activity (logarithmic partition parameter above shampoo) [2] | Activity (logarithmic partition parameter above soap) [3, 9] | Activity (logarithmic partition parameter above washing powder) [4, 10] | Activity (logarithmic partition parameter above candle wax) [5] | Activity (logarithmic partition parameter above gel room air fresheners) [6] | Activity (logarithmic partition parameter above dissolved WC scented block cleaners) [7] | Compound | Activity (logarithmic partition parameter above wet hair) [1] | Activity (logarithmic partition parameter above soap) [3] | Activity (logarithmic partition parameter above washing powder) [4]
1 | −1.127 | −0.513 | 0.059 | −0.041 | −0.856 | 0.125 | −0.992 | CC(=O)OC(C)(C)Cc1ccccc1 [DMBCA, dimethylbenzylcarbinyl acetate] | – | – | –
2 | −2.257 | – | −1.435 | −1.440 | −0.822 | −0.653 | −2.412 | C=CCc1ccc(O)c(OC)c1 [Eugenol] | – | – | –
3 | −2.089 | −1.900 | −1.331 | −1.448 | −2.105 | −1.548 | −1.400 | CC(C=O)Cc1ccc(C(C)(C)C)cc1 (stereo not drawn) [Lilial] | – | – | –
4 | −0.776 | 0.769 | 0.395 | 0.377 | 0.819 | −0.273 | −1.833 | CC1=CCC2CC1C2(C)C (stereo not drawn) [alpha-Pinene] | – | – | –
5 | −1.029 | −0.232 | 0.486 | 0.246 | −0.341 | 0.568 | −1.320 | CC(=O)OC(C)c1ccccc1 (stereo not drawn) [Styrolyl acetate] | – | – | –
6 | −1.056 | −0.287 | 0.076 | 0.184 | −0.324 | 0.460 | −1.131 | C=CC(C)CCCC(C)(C)O (stereo not drawn) [Dihydromyrcenol] | – | – | –
7 | −0.721 | 0.777 | 0.392 | 0.357 | 0.783 | −0.116 | −1.348 | C=C1C2CCC(C2)C1(C)C (stereo not drawn) [Camphene] | – | – | –
8 | −0.647 | 0.830 | 0.469 | 0.415 | 0.701 | −0.090 | −1.682 | C=C1CCC2CC1C2(C)C (stereo not drawn) [beta-Pinene] | – | – | –
9 | −1.636 | −1.282 | −0.837 | −0.778 | −1.606 | −0.662 | −0.819 | CC(=O)/C=C/C1=C(C)CCCC1(C)C [Ionone, beta] | – | – | –
10 | −2.043 | −1.839 | −0.952 | −0.976 | −1.273 | −0.365 | −2.045 | CC(C)=CCC/C(C)=C/CO [Geraniol] | – | – | –
11 | −1.867 | −0.759 | −0.088 | −0.389 | −0.364 | 0.148 | – | OCc1ccccc1 [Benzyl alcohol] | – | – | –
12 | −2.690 | – | −2.176 | −1.559 | – | – | −1.413 | CCCCCC/C(C=O)=C\c1ccccc1 [Hexylcinnamaldehyde, alpha] | – | – | –
13 | −2.475 | – | −2.090 | −1.547 | – | −1.761 | −1.348 | C[C@@H]1CC[C@H]2C(C)(C)[C@H]3C[C@@]12CC[C@@]3(C)O [Cedrol] | – | – | –
14 | −0.183 | 0.965 | 0.748 | – | – | 0.062 | −1.102 | C=C(C)[C@H]1CC=C(C)CC1 [Limonene D] | – | – | –
15 | −2.381 | – | −1.804 | −1.609 | −1.869 | −1.161 | – | CC(CC=O)CCCC(C)(C)O (stereo not drawn) [Hydroxycitronellal] | – | – | –
16 | – | – | – | −2.349 | – | – | −3.166 | O=C(OCc1ccccc1)c1ccccc1O [Benzyl salicylate] | – | – | –
17 | −1.612 | −1.716 | −1.190 | −1.467 | – | −1.544 | −0.870 | CC(C)CCOC(=O)c1ccccc1O [Isoamyl salicylate] | – | – | –

Row | Compound | Activity (logarithmic partition parameter above wet hair) [1, 8] | Activity (logarithmic partition parameter above shampoo) [2] | Activity (logarithmic partition parameter above soap) [3, 9] | Activity (logarithmic partition parameter above washing powder) [4, 10] | Activity (logarithmic partition parameter above candle wax) [5] | Activity (logarithmic partition parameter above gel room air fresheners) [6] | Activity (logarithmic partition parameter above dissolved WC scented block cleaners) [7] | Activity (logarithmic partition parameter above wet hair) [1] | Activity (logarithmic partition parameter above soap) [3] | Activity (logarithmic partition parameter above washing powder) [4]
18 | CC(=O)O[C@]1(C)CC[C@@]23C[C@@H]1C(C)(C)[C@@H]2CC[C@H]3C [Cedryl acetate] | – | – | – | – | – | −2.566 | −1.161 | −2.685 | −2.483 | −1.971
19 | CCOC(=O)c1ccccc1C(=O)OCC [Diethyl phthalate] | – | – | −1.742 | −2.124 | −2.459 | −2.303 | – | – | – | –
